Assay results as given in the supplement of paper PMC13380429.
± gives the standard deviation of the averaged measurements.

Legend:
Settings in all cases: 72 h
HepG2 [1] = assay: drug sensitivity score (DSS) for viability; higher = more toxic; extreme values may be limits of the assay
Vero E6 [2] = assay: as above
Calu-3 [3] = assay: as above
U2OS [4] = assay: as above
Caco-2 [5] = assay: as above
HepG2 [6] = assay: relative viability EC50 (midpoint between 100% and the lowest measured viability); higher = less toxic
Vero E6 [7] = assay: as above
Calu-3 [8] = assay: as above
U2OS [9] = assay: as above
Caco-2 [10] = assay: as above
HepG2 [11] = assay: cell viability relative to DMSO; higher = less toxic
Vero E6 [12] = assay: as above
Calu-3 [13] = assay: as above
U2OS [14] = assay: as above
Caco-2 [15] = assay: as above

| SMILES | drug sensitivity score (HepG2 [1]) | drug sensitivity score (Vero E6 [2]) | drug sensitivity score (Calu-3 [3]) | drug sensitivity score (U2OS [4]) | drug sensitivity score (Caco-2 [5]) | relative viability EC50 (HepG2 [6]) [µM] | relative viability EC50 (Vero E6 [7]) [µM] | relative viability EC50 (Calu-3 [8]) [µM] | relative viability EC50 (U2OS [9]) [µM] | relative viability EC50 (Caco-2 [10]) [µM] | cell viability (HepG2 [11]; 1 nM) [%] | cell viability (HepG2 [11]; 10 nM) [%] | cell viability (HepG2 [11]; 100 nM) [%] | cell viability (HepG2 [11]; 1000 nM) [%] | cell viability (HepG2 [11]; 10000 nM) [%] | cell viability (Vero E6 [12]; 1 nM) [%] | cell viability (Vero E6 [12]; 10 nM) [%] | cell viability (Vero E6 [12]; 100 nM) [%] | cell viability (Vero E6 [12]; 1000 nM) [%] | cell viability (Vero E6 [12]; 10000 nM) [%] | cell viability (Calu-3 [13]; 1 nM) [%] | cell viability (Calu-3 [13]; 10 nM) [%] | cell viability (Calu-3 [13]; 100 nM) [%] | cell viability (Calu-3 [13]; 1000 nM) [%] | cell viability (Calu-3 [13]; 10000 nM) [%] | cell viability (U2OS [14]; 1 nM) [%] | cell viability (U2OS [14]; 10 nM) [%] | cell viability (U2OS [14]; 100 nM) [%] | cell viability (U2OS [14]; 1000 nM) [%] | cell viability (U2OS [14]; 10000 nM) [%] | cell viability (Caco-2 [15]; 1 nM) [%] | cell viability (Caco-2 [15]; 10 nM) [%] | cell viability (Caco-2 [15]; 100 nM) [%] | cell viability (Caco-2 [15]; 1000 nM) [%] | cell viability (Caco-2 [15]; 10000 nM) [%] |
| --- | --- | --- | --- | --- | --- | --- | --- | --- | --- | --- | --- | --- | --- | --- | --- | --- | --- | --- | --- | --- | --- | --- | --- | --- | --- | --- | --- | --- | --- | --- | --- | --- | --- | --- | --- |
| CC(C)CC(NC(=O)OCC1c2ccccc2-c2ccccc21)C(=O)O (stereo in doubt) | 0 | 0 | 0 | 0 | 0 | > 10 | > 10 | > 10 | > 10 | > 10 | 90.3 | 103 | 90.1 | 102 | 97.8 | 97.3 | 102 | 95.6 | 94.5 | 108 | 89.2 | 102 | 107 | 102 | 92.8 | 91 | 95.3 | 105 | 99.7 | 101 | 85.2 | 90.4 | 104 | 96.5 | 98.2 |
| CC(C)C(N)C(=O)O (stereo in doubt) [L-valine] | 0 | 0 | 0 | 0 | 0 | > 10 | > 10 | > 10 | > 10 | > 10 | 94.8 | 94.5 | 99 | 96.9 | 99.3 | 96.8 | 96.7 | 96.6 | 92.3 | 95.5 | 102 | 105 | 95.9 | 93 | 99 | 101 | 92.7 | 98.1 | 93.5 | 102 | 96 | 91.3 | 100 | 98.7 | 102 |
| CC(C)(S)C(N)C(=O)O (stereo in doubt) [penicillamine-(racemic)] | 0 | 0 | 0 | 0 | 0 | > 10 | > 10 | > 10 | > 10 | > 10 | 103 | 106 | 110 | 95 | 100 | 104 ± 6.7 | 102 ± 5.4 | 102 ± 2.6 | 99.9 ± 7.1 | 101 ± 3.6 | 95.7 ± 11 | 94.9 ± 13 | 98.3 ± 5 | 106 ± 3.7 | 108 ± 3.2 | 103 ± 1.8 | 97.4 ± 2.1 | 100.2 ± 0.35 | 98.5 ± 6.2 | 101 ± 1.1 | 105 ± 1.9 | 98 ± 0.42 | 96 ± 3.5 | 93.7 ± 4.4 | 98.55 ± 0.35 |
| NCCOB(c1ccccc1)c1ccccc1 [2-APB] | 0 | 0 | 0 | 0 | 0 | > 10 | > 10 | > 10 | > 10 | > 10 | 96.8 | 112 | 91.2 | 93.4 | 92.1 | 110 | 108 | 97.4 | 101 | 105 | 101 | 96.3 | 99.1 | 105 | 103 | 96 | 95.6 | 100 | 100 | 104 | 91 | 93.3 | 98.5 | 94.3 | 104 |
| O=C(O)CNC(=O)c1ccccc1I [2-iodohippuric-acid] | 0 | 0 | 0 | 0 | 0 | > 10 | > 10 | > 10 | > 10 | > 10 | 101 | 100 | 97.3 | 101 | 91.3 | 109 | 107 | 99.1 | 102 | 97.8 | 101 | 106 | 91.7 | 104 | 91.7 | 100 | 97.6 | 97.8 | 96.7 | 102 | 103 | 103 | 93.1 | 96.4 | 105 |
| CCCCCCCCCCC(CO)CCCCCCCC (stereo not given) [2-octyldodecan-1-ol] | 0 | 0 | 0 | 0 | 0 | > 10 | > 10 | > 10 | > 10 | > 10 | 96.8 | 95.8 | 102 | 102 | 98.3 | 98.4 | 97.3 | 97.4 | 93.5 | 99.7 | 98.5 | 88.2 | 98.2 | 100 | 102 | 96.6 | 98 | 97.3 | 101 | 95.9 | 96.1 | 103 | 98.9 | 93.1 | 98.2 |
| OCCCNc1ccccc1 [3-anilinopropan-1-ol] | 0 | 0 | 0 | 0 | 0 | > 10 | > 10 | > 10 | > 10 | > 10 | 103 | 101 | 95.6 | 103 | 94.9 | 100 | 96.1 | 107 | 94.4 | 97.9 | 106 | 104 | 99.6 | 97 | 115 | 99.6 | 106 | 97.8 | 102 | 98.7 | 101 | 91.8 | 93.7 | 93.3 | 95.3 |
| O=C(O)CCCc1c[nH]c2ccccc12 [3-indolebutyric-acid] | 0 | 0 | 0 | 0 | 1.2 | > 10 | > 10 | > 10 | > 10 | > 10 | 98.3 | 99.4 | 92.8 | 87.9 | 101 | 102 | 101 | 101 | 97.2 | 94.2 | 99.6 | 100 | 97.7 | 100 | 99.3 | 102 | 102 | 101 | 95 | 99.9 | 99.4 | 88.5 | 89.6 | 92.5 | 91.7 |
| CC(=O)N1CC[N+](C)(C)CC1 [4-acetyl-1,1-dimethylpiperazinium] | 0 | 0 | 0 | 0 | 0 | > 10 | > 10 | > 10 | > 10 | > 10 | 93.6 | 109 | 111 | 97.9 | 91.2 | 100 | 111 | 106 | 96.8 | 101 | 102 | 101 | 97 | 102 | 88.6 | 101 | 100 | 97.5 | 102 | 95 | 100 | 100 | 98.7 | 98.2 | 97.9 |
| CCCc1ccc(C(=O)O)cc1 [4-propylbenzoic-acid] | 0 | 0 | 0 | 0 | 0 | > 10 | > 10 | > 10 | > 10 | > 10 | 106 | 106 | 93.7 | 104 | 98.3 | 93.2 | 97.4 | 91.9 | 92.2 | 103 | 106 | 106 | 101 | 96.4 | 97.2 | 98.5 | 94.9 | 99.8 | 98.9 | 102 | 96.6 | 96.4 | 105 | 89.7 | 106 |
| CCCN(CCC)[C@H]1CCc2cccc(O)c2C1 [8-hydroxy-DPAT] | 0 | 0 | 0 | 0 | 0 | > 10 | > 10 | > 10 | > 10 | > 10 | 102 | 102 | 93.6 | 109 | 92.2 | 97 | 94.5 | 99.2 | 89.3 | 104 | 99.2 | 105 | 97.4 | 101 | 102 | 96.9 | 98 | 99.1 | 102 | 99.9 | 101 | 101 | 98 | 98.8 | 101 |
| NCCCCCCCCCCNS(=O)(=O)c1cccc2c(Cl)cccc12 [A-7] | 0 | 0 | 0 | 0 | 0 | > 10 | > 10 | > 10 | > 10 | > 10 | 112 | 102 | 98.6 | 108 | 95.8 | 97.3 | 98.4 | 95.2 | 101 | 94.7 | 97.8 | 98.8 | 96.5 | 95.9 | 95.1 | 99.2 | 106 | 97.4 | 99.8 | 93.9 | 108 | 95.5 | 107 | 99.7 | 97.3 |
| N[C@@H]1CCN(c2cccnc2)C1 [ABT-202] | 0 | 0 | 0 | 0 | 0 | > 10 | > 10 | > 10 | > 10 | > 10 | 97.8 | 99 | 104 | 105 | 109 | 102 | 97.4 | 104 | 94.5 | 108 | 93.1 | 90.3 | 99.8 | 97.5 | 99.3 | 96.1 | 98.8 | 96.1 | 102 | 103 | 101 | 102 | 96 | 95.7 | 106 |
